Laboratory results as given in PMC5978884, “Dissection of the antimicrobial and hemolytic activity of Cap18: Generation of Cap18 derivatives with enhanced specificity” (PLoS ONE, 2018).
Like-named read-outs stand apart in the source and are kept apart here. Where no end group is shown, it is not given here.

How the values were obtained:
[1] = test system: Listeria monocytogenes N22-2; assay type: cell-based
Procedure: (§1) All strains were grown in Mueller-Hinton-II medium, except L. monocytogenes which was grown in BHI medium and L. lactis which was grown in MRS medium. Incubation took place aerobically at 37°C, except for Y. ruckeri and A. salmonicida, which were grown aerobically at RT (20 °C), and L. lactis grown aerobically at 30°C. All plates were incubated for 16–21 hours.
(§2) The minimum inhibitory concentrations (MICs) of the AMPs were measured in 96-well microtiter plates according the Clinical and Laboratory Standards Institute (CLSI, formerly National Committee for Clinical Laboratory Standards [NCCLS]). Briefly, liquid Mueller-Hinton-II medium containing increasing concentrations of AMPs is inoculated with a defined number of cells (approx. 10^5 CFUs/ml) in 96-well microtiter plates (polypropylene), whereas each plate also includes a positive growth control and a negative control (sterile control). The range of peptide concentrations analyzed was 0.125–64 μg/ml for the high purity peptides and 0.06–32 μg/ml for peptides of the variant library. After incubation, the MIC is determined by the lowest concentration showing no visible growth. All plates were incubated for 16–20 hours. The MIC of the reference antibiotics was determined by the use of Sensititre panels (Trek Diagnostic Systems Ltd, East Grinstead, UK).

[2] = test system: Pseudomonas aeruginosa ATCC27853; assay type: cell-based
Procedure: as §1, §2

[3] = test system: Escherichia coli ATCC25922; assay type: cell-based
Procedure: as §1, §2

[4] = test system: Lactococcus lactis IL1403; assay type: cell-based
Procedure: as §1, §2

[5] = test system: Enterococcus faecalis ATCC29212; assay type: cell-based
Procedure: as §1, §2

[6] = test system: all the tested bacterial species including Gram-positive and Gram-negative bacteria
Procedure: as §2, with “The range of peptide concentrations analyzed was 0.125–64 μg/ml for the high purity peptides and 0.06–32 μg/ml for peptides of the variant library.” left out
To identify Cap18 variant peptides with changed species specificity, the antimicrobial screening data of Y. ruckeri, A. salmonicida, S. Typhimurium and L. lactis was compared.
In addition, three Cap18 derivatives harboring either a I13F, I13M or G26T substitution were ordered as positive controls. […] The antimicrobial activity of the highly pure peptides was determined by measuring the MIC value of each derivative against the four test strains Y. ruckeri, A. salmonicida, S.Typhimurium and L. lactis (Table 6). […] In addition to the additional screening strains, a wider range of relevant pathogens including Gram-positive and Gram-negative bacteria was analyzed for targeted antimicrobial activity.

[7] = test system: Salmonella enterica serovar Typhimurium LT2; assay: microbe, parasite or virus in culture; assay type: cell-based; details: LT2
Procedure: as §1, §2

[8] = test system: Aeromonas salmonicida ATCC33658; assay: microbe, parasite or virus in culture; assay type: cell-based; details: ATCC33658
Procedure: as §1, §2

[9] = test system: Yersinia ruckeri 392/2003; assay: microbe, parasite or virus in culture; assay type: cell-based
Procedure: as §1, §2

[10] = previous study; cited from earlier work
Source text: It must be expected that AMPs during evolution have evolved towards a high general activity against multiple microorganisms. In this study, we address the issues of species specificity, hemolytic activity and antimicrobial activity of Cap18, a α-helical peptide of the cathelicidin family.

horse erythrocytes = test system: horse erythrocytes; set-up: method as in PMID 26656394; details: cited from earlier work

Sequence | MIC L. monocytogenes N22-2 [1] | MIC P. aeruginosa ATCC27853 [2] | MIC E. coli ATCC25922 [3] | MIC L. lactis IL1403 [4] | MIC E. faecalis ATCC29212 [5] | MIC against all the tested bacterial species [6] | MIC S. Typhimurium LT2 [7] | MIC A. salmonicida ATCC33658 [8] | MIC Y. ruckeri 392/2003 [9] | Thermostability [10] | Hemolytic activity in vitro (horse erythrocytes) | MIC L. lactis [4] | MIC S. Typhimurium [7] | MIC A. salmonicida [8] | MIC Y. ruckeri [9] | MIC Y. ruckeri 392/2003 ([9]; high purity peptides, Mueller-Hinton-II, RT (20 °C), 0.125–64 μg/ml, triplicates)
GLRKRLRKFRNKDKEKLKKIGQKIQGLLPKLAPRTDY [Peptide 3] | 32 to 64 µg/mL | ≥64 µg/mL | ≥64 µg/mL | ≥64 µg/mL | ≥64 µg/mL | ≥ 32 µg/mL | ≥64 µg/mL | ≥64 µg/mL | ≥64 µg/mL | – | – | – | – | – | – | –
GLRKRLRKFRNKIKEKDKKIGQKIQGLLPKLAPRTDY [Peptide 16] | ≥64 µg/mL | ≥64 µg/mL | – | ≥64 µg/mL | ≥64 µg/mL | ≥ 32 µg/mL | – | ≥64 µg/mL | – | – | – | – | – | – | – | –
GLRKRLRKFRNKIKEKLKKIGQKDQGLLPKLAPRTDY [Peptide 26] | ≥64 µg/mL | ≥64 µg/mL | ≥64 µg/mL | ≥64 µg/mL | ≥64 µg/mL | ≥ 32 µg/mL | ≥64 µg/mL | ≥64 µg/mL | ≥64 µg/mL | – | – | – | – | – | – | –
GLRKRLRKFRNKIKEKLKKIGQKIQGLLPKLAPRTDY [Cap18] | 4 µg/mL | 4 to 8 µg/mL | 4 to 8 µg/mL | 1 to 2 µg/mL | 8 µg/mL | – | 4 to 8 µg/mL | 4 µg/mL | – | highly thermostable | no hemolytic activity | 2 to 4 µg/mL | 2 to 4 µg/mL | 2 µg/mL | 2 µg/mL | 2 to 4 µg/mL
GLRKRLRKFRNKIKEKLKKIGQKNQGLLPKLAPRTDY [Peptide 28] | 32 µg/mL | – | – | – | – | ≥ 32 µg/mL | 32 µg/mL | – | – | – | – | – | – | – | – | –
GLRKRLRKFRNKIKEKPKKIGQKIQGLLPKLAPRTDY [Peptide 18] | ≥64 µg/mL | ≥64 µg/mL | ≥64 µg/mL | ≥64 µg/mL | ≥64 µg/mL | ≥ 32 µg/mL | ≥64 µg/mL | ≥64 µg/mL | – | – | – | – | – | – | – | –
GLRKRLRKFRNKQKEKLKKIGQKIQGLLPKLAPRTDY [Peptide 7] | 16 µg/mL | 8 µg/mL | 16 to 32 µg/mL | ≥64 µg/mL | 32 µg/mL | – | 4 to 8 µg/mL | 8 µg/mL | 8 µg/mL | – | – | – | 4 µg/mL | 4 µg/mL | – | –
GLRKRLRKFRNKSKEKLKKIGQKIQGLLPKLAPRTDY [Peptide 8] | 32 µg/mL | 8 to 16 µg/mL | 16 µg/mL | ≥64 µg/mL | ≥64 µg/mL | – | 8 µg/mL | 4 µg/mL | 8 to 16 µg/mL | – | – | 8 µg/mL | 4 µg/mL | 2 µg/mL | – | –
GLRKRPRKFRNKIKEKLKKIGQKIQGLLPKLAPRTDY [Peptide 1] | 32 µg/mL | ≥64 µg/mL | 8 µg/mL | ≥64 µg/mL | 32 µg/mL | – | 8 µg/mL | 8 to 16 µg/mL | 64 µg/mL | – | – | 8 µg/mL | 4 µg/mL | 8 µg/mL | – | –
